Among the data in ChEMBL document CHEMBL6071142, “Isoalantolactone/hydroxamic acid hybrids as potent dual STAT3/HDAC inhibitors and self-assembled nanoparticles for cancer therapy” (Eur J Med Chem, 2024) are IC50 and Kd values, retold here.

One assay has as its system A549. The assay is described as follows: cells. In kind it is functional, cell-based. The conditions noted are these: Homo sapiens, A549, 72 h.
The next assay deals with Histone deacetylase 2 (Homo sapiens, UniProt Q92769). Briefly: Inhibition of recombinant human HDAC2 using Boc-Lys (acetyl)-AMC as substrate preincubated with compound for 1 hr followed by substrate addition and measured after 30 mins by microplate reader assay.
Histone deacetylase 2, sequence (Q92769 whole entry): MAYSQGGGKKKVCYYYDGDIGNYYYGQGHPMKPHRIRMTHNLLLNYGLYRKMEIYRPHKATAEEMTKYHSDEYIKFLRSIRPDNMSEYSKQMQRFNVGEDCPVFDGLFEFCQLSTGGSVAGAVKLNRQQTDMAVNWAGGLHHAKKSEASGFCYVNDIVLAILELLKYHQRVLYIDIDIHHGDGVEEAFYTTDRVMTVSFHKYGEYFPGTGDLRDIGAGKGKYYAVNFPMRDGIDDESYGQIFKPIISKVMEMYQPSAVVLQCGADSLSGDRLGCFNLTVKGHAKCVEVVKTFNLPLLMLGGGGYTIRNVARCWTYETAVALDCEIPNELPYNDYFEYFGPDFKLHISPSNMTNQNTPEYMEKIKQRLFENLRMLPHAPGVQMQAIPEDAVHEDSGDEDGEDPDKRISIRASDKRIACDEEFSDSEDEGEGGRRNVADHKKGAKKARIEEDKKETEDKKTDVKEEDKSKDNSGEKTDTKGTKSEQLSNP
In assay [1] the target is T1, Protein deacetylase HDAC6 (Homo sapiens, UniProt Q9UBN7).
T1 sequence (Q9UBN7 whole entry): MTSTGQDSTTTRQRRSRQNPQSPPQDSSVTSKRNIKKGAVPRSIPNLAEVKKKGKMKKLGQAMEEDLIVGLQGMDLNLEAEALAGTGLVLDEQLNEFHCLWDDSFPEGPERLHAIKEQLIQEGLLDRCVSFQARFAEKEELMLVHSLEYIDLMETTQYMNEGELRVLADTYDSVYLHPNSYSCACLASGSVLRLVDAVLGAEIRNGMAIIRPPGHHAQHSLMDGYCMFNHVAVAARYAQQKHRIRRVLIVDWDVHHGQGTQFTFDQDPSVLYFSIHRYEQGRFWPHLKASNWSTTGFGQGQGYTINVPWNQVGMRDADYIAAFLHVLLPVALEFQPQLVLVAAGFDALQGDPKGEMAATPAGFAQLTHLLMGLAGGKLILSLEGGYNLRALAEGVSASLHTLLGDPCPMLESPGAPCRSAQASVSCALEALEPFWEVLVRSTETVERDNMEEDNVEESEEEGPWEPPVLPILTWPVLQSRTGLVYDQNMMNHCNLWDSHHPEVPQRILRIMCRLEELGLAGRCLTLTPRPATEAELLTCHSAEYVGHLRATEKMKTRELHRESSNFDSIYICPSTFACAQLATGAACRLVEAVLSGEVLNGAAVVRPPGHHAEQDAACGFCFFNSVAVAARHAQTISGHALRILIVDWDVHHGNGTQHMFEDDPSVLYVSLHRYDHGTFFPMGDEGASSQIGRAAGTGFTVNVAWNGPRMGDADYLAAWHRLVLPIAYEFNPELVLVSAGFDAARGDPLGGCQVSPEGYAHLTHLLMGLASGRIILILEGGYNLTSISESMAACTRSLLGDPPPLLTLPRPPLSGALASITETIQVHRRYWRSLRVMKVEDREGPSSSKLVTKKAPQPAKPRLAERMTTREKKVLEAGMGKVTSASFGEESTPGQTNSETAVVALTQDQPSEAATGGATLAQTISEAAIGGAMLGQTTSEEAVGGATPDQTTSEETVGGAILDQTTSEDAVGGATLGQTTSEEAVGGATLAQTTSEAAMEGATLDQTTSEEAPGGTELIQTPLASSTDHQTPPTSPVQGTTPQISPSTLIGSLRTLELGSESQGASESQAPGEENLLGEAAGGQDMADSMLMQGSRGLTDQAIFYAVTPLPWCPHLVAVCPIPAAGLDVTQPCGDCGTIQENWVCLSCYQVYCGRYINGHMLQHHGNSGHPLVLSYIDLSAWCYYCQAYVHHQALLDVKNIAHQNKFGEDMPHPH
The assay is described as follows: Inhibition of recombinant human HDAC6 using Boc-Lys (acetyl)-AMC as substrate preincubated with compound for 1 hr followed by substrate addition and measured after 30 mins by microplate reader assay.

For assay [2], the target named is Signal transducer and activator of transcription 3 (Homo sapiens, UniProt P40763). Briefly: Binding affinity to STAT3 (unknown origin) assessed as dissociation constant by SPR assay. For orientation: Surface plasmon resonance follows binding to a sensor surface in real time, without labels.
Signal transducer and activator of transcription 3, sequence (P40763 whole entry): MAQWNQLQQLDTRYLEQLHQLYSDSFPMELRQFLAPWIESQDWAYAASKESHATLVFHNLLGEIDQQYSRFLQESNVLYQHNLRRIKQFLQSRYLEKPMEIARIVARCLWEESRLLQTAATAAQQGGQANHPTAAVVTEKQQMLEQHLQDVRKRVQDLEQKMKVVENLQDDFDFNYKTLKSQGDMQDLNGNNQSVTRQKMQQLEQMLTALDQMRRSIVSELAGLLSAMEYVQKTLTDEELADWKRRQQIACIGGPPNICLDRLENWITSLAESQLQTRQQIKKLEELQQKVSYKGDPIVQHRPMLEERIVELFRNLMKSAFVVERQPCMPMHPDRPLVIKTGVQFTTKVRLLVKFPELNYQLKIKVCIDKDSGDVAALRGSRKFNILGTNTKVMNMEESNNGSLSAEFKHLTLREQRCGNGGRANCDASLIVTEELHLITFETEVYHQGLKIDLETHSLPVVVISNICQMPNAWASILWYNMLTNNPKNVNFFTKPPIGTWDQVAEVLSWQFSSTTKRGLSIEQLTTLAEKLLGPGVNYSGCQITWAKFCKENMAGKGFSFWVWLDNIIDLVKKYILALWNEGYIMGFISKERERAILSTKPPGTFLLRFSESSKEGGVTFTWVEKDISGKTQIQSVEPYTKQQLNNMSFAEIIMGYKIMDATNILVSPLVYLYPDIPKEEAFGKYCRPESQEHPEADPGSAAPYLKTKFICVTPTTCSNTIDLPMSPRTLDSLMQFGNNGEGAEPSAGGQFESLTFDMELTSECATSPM
The next assay deals with Histone deacetylase 3 (Homo sapiens, UniProt O15379). The assay is described as follows: Inhibition of recombinant human HDAC3 using Boc-Lys (acetyl)-AMC as substrate preincubated with compound for 1 hr followed by substrate addition and measured after 30 mins by microplate reader assay.
Histone deacetylase 3, sequence (O15379 whole entry): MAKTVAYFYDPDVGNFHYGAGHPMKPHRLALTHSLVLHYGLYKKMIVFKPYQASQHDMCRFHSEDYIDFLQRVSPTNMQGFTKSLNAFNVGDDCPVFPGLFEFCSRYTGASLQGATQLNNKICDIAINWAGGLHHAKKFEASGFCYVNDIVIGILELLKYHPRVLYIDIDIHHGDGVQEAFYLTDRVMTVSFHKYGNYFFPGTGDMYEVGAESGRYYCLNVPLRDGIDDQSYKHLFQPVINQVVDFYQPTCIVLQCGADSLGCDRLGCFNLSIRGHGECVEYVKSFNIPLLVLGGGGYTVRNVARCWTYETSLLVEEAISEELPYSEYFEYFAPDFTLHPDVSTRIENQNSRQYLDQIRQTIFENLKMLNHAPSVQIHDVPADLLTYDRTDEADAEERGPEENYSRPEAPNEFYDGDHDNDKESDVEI
Another assay deals with Histone deacetylase 1 (Homo sapiens, UniProt Q13547). The assay is described as follows: Inhibition of recombinant human HDAC1 using Boc-Lys (acetyl)-AMC as substrate preincubated with compound for 1 hr followed by substrate addition and measured after 30 mins by microplate reader assay.
Histone deacetylase 1, sequence (Q13547 whole entry): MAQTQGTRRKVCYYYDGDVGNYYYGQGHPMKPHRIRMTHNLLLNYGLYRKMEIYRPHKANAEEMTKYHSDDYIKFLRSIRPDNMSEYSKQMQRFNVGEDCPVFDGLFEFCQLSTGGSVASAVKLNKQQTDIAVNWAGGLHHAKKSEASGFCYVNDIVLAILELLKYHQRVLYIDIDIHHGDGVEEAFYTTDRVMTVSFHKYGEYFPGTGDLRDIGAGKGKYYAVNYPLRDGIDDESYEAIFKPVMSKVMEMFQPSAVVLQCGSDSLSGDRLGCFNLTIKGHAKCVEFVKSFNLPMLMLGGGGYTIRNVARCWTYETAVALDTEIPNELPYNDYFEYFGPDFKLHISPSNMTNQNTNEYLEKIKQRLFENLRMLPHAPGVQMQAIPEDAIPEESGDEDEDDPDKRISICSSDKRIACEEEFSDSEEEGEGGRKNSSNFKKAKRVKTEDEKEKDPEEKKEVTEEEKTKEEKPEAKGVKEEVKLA

Bounds are passed on as bounds.

Description for A549: Antiproliferative activity against human A549 cells assessed as inhibition of cell proliferation incubated for 72 hrs by CCK-8 assay

For `C=C1C(=O)O[C@@H]2C[C@@]3(C)CC[C@@H](OC(=O)[C@@H](CC)NC(=O)c4ccc(C(=O)Nc5ccccc5N)cc4)C(=C)[C@@H]3C[C@H]12`, the IC50 was 6.67 µM in the assay on A549; over 1000 nM at Histone deacetylase 2; over 1000 nM in assay [1]; over 1000 nM at Histone deacetylase 3; 6510 nM at Histone deacetylase 1. In assay [2], the Kd is 20.7 µM.

For the compound `C=C1C(=O)O[C@@H]2C[C@@]3(C)CC[C@@H](OC(=O)[C@H](CC)NC(=O)c4ccc(C(=O)Nc5ccccc5N)cc4)C(=C)[C@@H]3C[C@H]12`, the IC50 with A549 was over 10 µM; at Histone deacetylase 2, over 1000 nM; in assay [1] it was over 1000 nM; at Histone deacetylase 3 it was over 1000 nM; on Histone deacetylase 1, over 1000 nM. For the same compound, the dissociation constant Kd in assay [2] is 22.6 µM.

Turning to `C=C1C(=O)O[C@@H]2C[C@@]3(C)CC[C@@H](OC(=O)[C@@H](Cc4ccccc4)NC(=O)c4ccc(C(=O)Nc5ccccc5N)cc4)C(=C)[C@@H]3C[C@H]12`, the half-maximal inhibitory concentration (IC50) in the assay with A549 is 7.47 µM; at Histone deacetylase 2, over 1000 nM; in assay [1], over 1000 nM; at Histone deacetylase 3 it was over 1000 nM; on Histone deacetylase 1, 622 nM. Moreover, in assay [2], the Kd turned out to be 4.76 µM.

On to `C=C1C(=O)O[C@@H]2C[C@@]3(C)CC[C@@H](OC(=O)[C@@H](C)NC(=O)c4ccc(C(=O)NO)cc4)C(=C)[C@@H]3C[C@H]12`, for which the IC50 in the assay with A549 was over 10 µM; at Histone deacetylase 2, over 1000 nM; in assay [1] it was 162 nM; at Histone deacetylase 3, over 1000 nM; on Histone deacetylase 1, 748 nM. Further, the Kd in assay [2] was 20.1 µM.

For `C=C1C(=O)O[C@@H]2C[C@@]3(C)CC[C@@H](OC(=O)[C@H](C)NC(=O)c4ccc(C(=O)NO)cc4)C(=C)[C@@H]3C[C@H]12`, the IC50 in the assay with A549 was over 10 µM; on Histone deacetylase 2 it was 844 nM; in assay [1], 267 nM; on Histone deacetylase 3 it was 441 nM; on Histone deacetylase 1, 568 nM. Moreover, the dissociation constant (Kd) in assay [2] was over 50 µM.

For `C=C1C(=O)O[C@@H]2C[C@@]3(C)CC[C@@H](OC(=O)[C@H](Cc4ccccc4)NC(=O)c4ccc(C(=O)Nc5ccccc5N)cc4)C(=C)[C@@H]3C[C@H]12`, the IC50 in the assay with A549 is over 10 µM; on Histone deacetylase 2 it was over 1000 nM; in assay [1] it was over 1000 nM; on Histone deacetylase 3, over 1000 nM; on Histone deacetylase 1 it was over 1000 nM. In addition, the dissociation constant Kd in assay [2] is over 50 µM.

With `C=C1C(=O)O[C@@H]2C[C@@]3(C)CC[C@@H](OC(=O)[C@@H](CC(C)C)NC(=O)c4ccc(C(=O)Nc5ccccc5N)cc4)C(=C)[C@@H]3C[C@H]12`, the 50% inhibitory concentration (IC50) in the assay with A549 is 5.61 µM; on Histone deacetylase 2, over 1000 nM; in assay [1], over 1000 nM; at Histone deacetylase 3, over 1000 nM; at Histone deacetylase 1 it was 453 nM. Also, the dissociation constant (Kd) in assay [2] came out at 6.88 µM.

For the compound `C=C1C(=O)O[C@@H]2C[C@@]3(C)CC[C@@H](OC(=O)[C@H](C)NC(=O)c4ccc(C(=O)Nc5ccccc5N)cc4)C(=C)[C@@H]3C[C@H]12`, the IC50 is 3.34 µM in the assay on A549; over 1000 nM at Histone deacetylase 2; over 1000 nM in assay [1]; over 1000 nM at Histone deacetylase 3; over 1000 nM at Histone deacetylase 1. In assay [2], the Kd stood at 8.96 µM.

With `C=C1C(=O)O[C@@H]2C[C@@]3(C)CC[C@@H](OC(=O)CNC(=O)c4ccc(C(=O)NO)cc4)C(=C)[C@@H]3C[C@H]12`, the IC50 came to 2.56 µM in the assay on A549; 189 nM at Histone deacetylase 2; 87.5 nM in assay [1]; 107 nM on Histone deacetylase 3; 202 nM on Histone deacetylase 1. Further, the Kd in assay [2] is over 50 µM.

On to `Nc1ccc(F)cc1NC(=O)c1ccc(CNC(=O)/C=C/c2cccnc2)cc1`, for which the half-maximal inhibitory concentration (IC50) in the assay on A549 turned out to be 6.4 µM; at Histone deacetylase 2 it was 212 nM. In addition, the Kd in assay [2] was over 50 µM.

Take `C=C1C(=O)O[C@@H]2C[C@@]3(C)CC[C@@H](OC(=O)[C@H](NC(=O)c4ccc(C(=O)Nc5ccccc5N)cc4)C(C)C)C(=C)[C@@H]3C[C@H]12`: the IC50 is over 10 µM in the assay on A549; over 1000 nM at Histone deacetylase 2; over 1000 nM in assay [1]; over 1000 nM on Histone deacetylase 3; over 1000 nM at Histone deacetylase 1. Moreover, in assay [2], the Kd was over 50 µM.

For `C=C1C(=O)O[C@@H]2C[C@@]3(C)CC[C@@H](OC(=O)[C@@H](C)NC(=O)c4ccc(C(=O)Nc5ccccc5N)cc4)C(=C)[C@@H]3C[C@H]12`, the IC50 with A549 was 2.24 µM; on Histone deacetylase 2 it was 507 nM; in assay [1], over 1000 nM; at Histone deacetylase 3 it was 473 nM; at Histone deacetylase 1 it was 122 nM. The Kd in assay [2] came to 4.96 µM.

Regarding `C=C1C(=O)O[C@@H]2C[C@@]3(C)CC[C@@H](OC(=O)CNC(=O)c4cccc(/C=C/C(=O)NO)c4)C(=C)[C@@H]3C[C@H]12`, the IC50 in the assay on A549 worked out at 1.87 µM; on Histone deacetylase 2 it was 92.7 nM; in assay [1], 45.3 nM; on Histone deacetylase 3 it was 63.1 nM; on Histone deacetylase 1, 86.5 nM.

As to `C=C1C(=O)O[C@@H]2C[C@@]3(C)CC[C@@H](OC(=O)CNC(=O)c4ccc(C(=O)Nc5ccccc5N)cc4)C(=C)[C@@H]3C[C@H]12`, the IC50 is over 10 µM in the assay with A549; over 1000 nM at Histone deacetylase 2; over 1000 nM in assay [1]; over 1000 nM at Histone deacetylase 3; over 1000 nM on Histone deacetylase 1. Besides, the dissociation constant (Kd) in assay [2] stood at 39.3 µM.

`C=C1C(=O)O[C@@H]2C[C@@]3(C)CC[C@@H](OC(=O)[C@@H](NC(=O)c4ccc(C(=O)Nc5ccccc5N)cc4)C(C)C)C(=C)[C@@H]3C[C@H]12`: the IC50 in the assay with A549 is over 10 µM; at Histone deacetylase 2 it was over 1000 nM; in assay [1] it was over 1000 nM; on Histone deacetylase 3 it was over 1000 nM; at Histone deacetylase 1 it was over 1000 nM. Also, in assay [2], the dissociation constant (Kd) amounted to 17.4 µM.

With `C=C1C(=O)O[C@@H]2C[C@@]3(C)CC[C@@H](OC(=O)[C@@H](C)NC(=O)c4cccc(/C=C/C(=O)NO)c4)C(=C)[C@@H]3C[C@H]12`, the half-maximal inhibitory concentration (IC50) was determined as 4.33 µM in the assay on A549; 313 nM on Histone deacetylase 2; 86.9 nM in assay [1]; 103 nM on Histone deacetylase 3; 197 nM at Histone deacetylase 1. In assay [2], the Kd is 13.5 µM.

For `C=C1C(=O)O[C@@H]2C[C@@]3(C)CC[C@@H](OC(=O)[C@@H](C)NC(=O)c4ccc(/C=C/C(=O)NO)cc4)C(=C)[C@@H]3C[C@H]12`, the half-inhibitory concentration (IC50) was determined as 4.53 µM in the assay on A549; 342 nM at Histone deacetylase 2; 64 nM in assay [1]; 272 nM at Histone deacetylase 3; 193 nM at Histone deacetylase 1. In assay [2], the dissociation constant Kd worked out at 3.89 µM.

Regarding `C=C1C(=O)O[C@@H]2C[C@@]3(C)CC[C@@H](OC(=O)[C@H](C)NC(=O)c4cccc(/C=C/C(=O)NO)c4)C(=C)[C@@H]3C[C@H]12`, the IC50 was determined as 4.53 µM in the assay on A549; 404 nM at Histone deacetylase 2; 62.4 nM in assay [1]; 113 nM at Histone deacetylase 3; 206 nM at Histone deacetylase 1. Besides, the dissociation constant (Kd) in assay [2] came out at 12.3 µM.

With `C=C1C(=O)O[C@@H]2C[C@@]3(C)CC[C@@H](OC(=O)[C@H](CC(C)C)NC(=O)c4ccc(C(=O)Nc5ccccc5N)cc4)C(=C)[C@@H]3C[C@H]12`, the IC50 was over 10 µM with A549; over 1000 nM on Histone deacetylase 2; over 1000 nM in assay [1]; over 1000 nM at Histone deacetylase 3; over 1000 nM on Histone deacetylase 1. Also, the Kd in assay [2] was over 50 µM.

For orientation: IC50 means the concentration at which inhibition is half-maximal. Broadly, the Kd is the concentration at which binding is half-saturated.
